Assay results: patent US20210060550A1, “DEVICES AND METHODS FOR DETECTION OF MICROORGANISMS” (MICROBIOSENSOR LIMITED, priority 2017, published 2021)

What was measured:
K. pneumoniae = test: Test D: antibiotic sensitivity in contaminated urine, tetrazolium violet colour change; type: cell-based; conditions: urine with 10^5 cfu/mL K. pneumoniae, 37° C. 10 hours; μg/ml: nitrofurantoin 64, pivmecillinam 4, trimethoprim 8, cephalexin 32, ciprofloxacin 0.25
Method: Each test tube contained 0.04 mg tetrazolium violet, 6.6 mg Wilkins Chalgren media. The test chambers also contained an amount of antibiotic compound as indicated in the tables below (as concentration in final volume of urine).
For each example, 0.2 mL of a urine sample was contaminated with 10^5 cfu/mL of the specified bacteria was poured into each test tube. The resultant composition was incubated at 37° C. for 10 hours. FIGS. 3A to 3F show the test tubes after the incubation period.

P. aeruginosa = test: Test A: antibiotic sensitivity in contaminated urine, tetrazolium violet colour change; type: cell-based; conditions: urine with 10^5 cfu/mL P. aeruginosa, 37° C. 10 hours; μg/ml: nitrofurantoin 64, pivmecillinam 4, trimethoprim 1, cephalexin 16, ciprofloxacin 0.25

SMILES | infection treatable or resistant (FIG. 4D) (K. pneumoniae) | infection treatable or resistant (FIG. 4A) (P. aeruginosa)
O=C(O)c1cn(C2CC2)c2cc(N3CCNCC3)c(F)cc2c1=O [ciprofloxacin] | can be treated | can be treated
COc1cc(Cc2cnc(N)nc2N)cc(OC)c1OC [trimethoprim] | can be treated | –
